From patent publication US5250570A, “Amidobenzene derivatives, compositions and use” (Imperial Chemical Industries PLC, priority 1990, dated 1993)

Legend:
aldose reductase [1] = assay: Reduction of sciatic nerve sorbitol levels in streptozotocin-diabetic rats (inhibition of aldose reductase in vivo); set-up: species or system rat; conditions: 5 daily oral doses of 3 mg/kg
Protocol: Rats are made diabetic (as evidenced by severe glucosuria being present) by dosing with streptozotocin. The animals are then dosed daily with the test compound for one, two or five days. The animals are then sacrificed 2-6 hours after the final dose and the eye lenses and/or sciatic nerves are removed. After a standard work-up procedure the residual sorbitol levels in each tissue are determined by gas liquid chromatography after conversion to the polytrimethylsilyl derivatives. Inhibition of aldose reductase in vivo can then be assessed by comparing the residual sorbitol levels in tissues from the dosed diabetic group of rats with those of an undosed group of diabetic rats and an undosed group of normal rats.
In a variation of the above test diabetic rats are dosed at a fixed daily oral dose for five days and then sacrificed 6 hours after the final dose and the reduction of sciatic nerve sorbitol assessed relative to that in control animals.

aldose reductase [2] = biological target: T1, aldose reductase (Bos taurus, UniProt P16116); assay: In vitro inhibition of partially purified bovine lens aldose reductase (spectrophotometric); assay type: biochemical; conditions: partially purified aldose reductase from bovine lenses
T1 construct: partially purified aldose reductase is isolated in known manner from bovine lenses; from tissue; host or cells: bovine lens
Excerpt: Thus, in a standard procedure partially purified aldose reductase is isolated in known manner from bovine lenses. The percentage inhibition of this enzyme's ability in vitro to catalyse the reduction of aldoses to polyhydric alcohols, and particularly to reduce glucose to sorbitol, caused by a test compound can then be determined using standard spectrophotometric methods.

IC50 (aldose reductase [2]): 44 nM
SMILES: Cc1cc(NC(=O)COc2ccccc2)cc(C)c1S(=O)(=O)C[N+](=O)[O-] [Example 1, (2,6-dimethyl-4-[2-phenoxyacetamido]phenylsulfonyl)nitromethane]
reduction in sciatic nerve sorbitol levels (aldose reductase [1]): 78%
